In patent US20250281512A1, “BUFFERING AGENT-CONTAINING COMPOSITIONS AND METHODS OF USING SAME” (KNOW BIO, LLC, priority 2022, published 2025):

Assay: Effect of buffer concentration on osmolality
Type: physicochemical
Description: The effect of buffer concentration on osmolality was measured for HEPES and potassium phosphate buffer systems and plotted in FIG. 8A. With HEPES, a higher buffer concentration can be achieved with a lower osmolality (slope 1.37 mOsmol/Kg per mMoles/L HEPES), as compared to phosphate buffers (slope 2.21 mOsmol/Kg per mMoles/L phosphate).

Compound | slope of osmolality against buffer concentration [mOsmol/Kg per mMoles/L]
O=S(=O)(O)CCN1CCN(CCO)CC1 [HEPES, 4-(2-hydroxyethyl)-1-piperazineethanesulfonic acid] | 1.37
phosphate | 2.21
